Here are results for 1 molecule from patent US8318186B2, “Use of at least a fatty ester for preparing a composition designed to inhibit 5-α-reductase activity, in pharmacology, in particular dermatology, in cosmetics and as food additive” (Laboratoires Expanscience, priority 2000, dated 2012).

This assay concerns the target T1, 5α-reductase (Homo sapiens, UniProt P18405).
T1 construct: endogenous in cells; host or cells: DU145 prostate carcinoma cells (ATCC HTB 81)
T1 sequence (P18405 1-259): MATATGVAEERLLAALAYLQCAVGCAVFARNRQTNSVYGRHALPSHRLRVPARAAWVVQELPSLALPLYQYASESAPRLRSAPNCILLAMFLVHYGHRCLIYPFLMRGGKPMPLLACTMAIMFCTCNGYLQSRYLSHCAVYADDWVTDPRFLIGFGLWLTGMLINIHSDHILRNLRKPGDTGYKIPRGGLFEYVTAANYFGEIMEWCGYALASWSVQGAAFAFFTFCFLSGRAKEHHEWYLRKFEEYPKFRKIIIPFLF
Kind of assay: Inhibition of the 5α-reductase of DU145 cells: quantity of 5-dihydrotestosterone formed from testosterone (RIA). In kind it is cell-based. As for the experimental part:
The prostatic cells DU145 are derived from a tumor line obtained from a prostate carcinoma (ATCC No. HTB 81). The MEM medium (ref. 0410265), the glutamine and the gentamycin are from Gibco. The fetal calf serum (FCS) is from DAP and is used decomplementized ([…] at 56° C.). The plastics serving for the culture (dishes and plates) are from Costar. The testosterone is from Sigma.
A stock solution in ethanol at 10 mg/ml is prepared from each of the products tested.
The concentration range used for the experiments is the following: 0, 5, 10, 50, 100 and 500 micrograms/ml. (Dilution performed in the culture medium).
The volume of extract added per well being 20 microliters/well, the solutions to be prepared are concentrated 50×.
A stock solution of testosterone at 10 mM is prepared in ethanol. At the time of its use, this solution is diluted 1:1 000 in the culture medium and 10 microliters are added per well.
The prostatic cells DU145 are cultured at 37° C., 5% Co2 in an MEM medium containing glutamine (2 mM), gentamycin (50 micrograms/ml) and 10% FCS. Their subculture rate is 1:10.
Before starting the experiment, the cells are placed in culture in 6-well plates at the rate of 2×10^5 DU145 cells per well/1 ml of medium containing only 1% FCS. The cells are maintained for 3 days at 37° C., 5% CO2. […]

Consider `CCCCCCCC/C=C\CCCCCCCC(=O)OC` [Methyl oleate, methyl oleate], for which the “5α-reductase inhibitory activity, in words” value (conclusions of Example 2) is “markedly less active than the methyl esters of avocado”. In addition, under “testosterone 0.1 micromolar, 3 hours, read-out: IC 50, conversion of testosterone to 5-dihydrotestosterone by the DU 145 cells (converted)”, the IC50 was 1.3 mM.
